Measured values reported in PubChem BioAssay AID651630 (Sanford-Burnham Center for Chemical Genomics, 2012).
Calls of active or inactive are those of the source.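 How the source made its calls: active means lipid-stain IC50 at or below a set limit, with nuclear-stain toxicity IC50 at least five times higher; inactive means the rest.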

Assays:
DAPI = test: TAG lipid buildup inhibition with viability readout – cell-based, panel, Nile Red and DAPI fluorescence, H9c2, dose response (AID 651630); details: H9c2 cells, DAPI nuclear fluorescence (cytotoxicity counter-readout), oleic acid;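 further: cells exposed to compound overnight before fixation and staining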
TAG = test: as above; details: H9c2 cells, Nile Red TAG fluorescence, oleic acid

In the case of `COc1ccc(-c2sc3ccc(N4CCOCC4)cc3c2C#CC(C)(C)O)cc1`, the IC50 cytotoxicity (DAPI nuclear signal decrease) (DAPI; mean of runs) is reported as > 25 µM (inactive), the IC50 cytotoxicity (DAPI nuclear signal decrease) (DAPI; run 1) is reported as over 25 µM and the IC50 cytotoxicity (DAPI nuclear signal decrease) (DAPI; run 2) is reported as over 25 µM. For the same molecule, the IC50 (TAG; mean of runs) was > 25 µM (inactive), the IC50 (TAG; run 1) was over 25 µM and the IC50 (TAG; run 2) was over 25 µM.
`COc1cccc(/C=C/C(=C2/C(=O)N(c3ccccc3)N=C2C)c2ccc(C)cc2)c1OC` gave an IC50 cytotoxicity (DAPI nuclear signal decrease) (DAPI; run 1) of over 25 µM, an IC50 cytotoxicity (DAPI nuclear signal decrease) (DAPI; run 2) of over 25 µM and an IC50 (TAG; mean of runs) of 1.63 µM. The IC50 (TAG; run 1) was 1.64 µM and the IC50 (TAG; run 2) was 1.61 µM.
In the case of `CS(=O)(=O)c1ccc(C(=O)OCC(=O)N2CCOCC2)cc1[N+](=O)[O-]`, the IC50 cytotoxicity (DAPI nuclear signal decrease) (DAPI; mean of runs) is reported as > 25 µM (inactive), the IC50 cytotoxicity (DAPI nuclear signal decrease) (DAPI; run 1) is reported as over 25 µM and the IC50 cytotoxicity (DAPI nuclear signal decrease) (DAPI; run 2) is reported as over 25 µM. For the same molecule, the IC50 (TAG; mean of runs) was > 25 µM (inactive), the IC50 (TAG; run 1) was over 25 µM and the IC50 (TAG; run 2) was over 25 µM.
With `Cc1nn2c(NCc3ccccn3)c3c(nc2c1-c1ccccc1)CCC3` the IC50 cytotoxicity (DAPI nuclear signal decrease) (DAPI; mean of runs) was > 25 µM (inactive), the IC50 cytotoxicity (DAPI nuclear signal decrease) (DAPI; run 1) was over 25 µM and the IC50 cytotoxicity (DAPI nuclear signal decrease) (DAPI; run 2) was over 25 µM. For the same molecule, the IC50 (TAG; mean of runs) was > 25 µM (inactive), the IC50 (TAG; run 1) was over 25 µM and the IC50 (TAG; run 2) was over 25 µM.
For `COc1ccccc1N1CCN(CC(=O)Nc2cc(C)nn2-c2nc(C)cc(C)n2)CC1`, the IC50 cytotoxicity (DAPI nuclear signal decrease) (DAPI; mean of runs) was > 25 µM (inactive), the IC50 cytotoxicity (DAPI nuclear signal decrease) (DAPI; run 1) was over 25 µM and the IC50 cytotoxicity (DAPI nuclear signal decrease) (DAPI; run 2) was over 25 µM. For the same molecule, the IC50 (TAG; mean of runs) was 18.9 µM (inactive), the IC50 (TAG; run 1) was 19.7 µM and the IC50 (TAG; run 2) was 18.1 µM.
With `O=C(c1cc(-c2ccncc2)nc2c(Cl)cccc12)N1CCN(c2ccccc2F)CC1` the IC50 cytotoxicity (DAPI nuclear signal decrease) (DAPI; mean of runs) was > 25 µM (inactive), the IC50 cytotoxicity (DAPI nuclear signal decrease) (DAPI; run 1) was over 25 µM and the IC50 cytotoxicity (DAPI nuclear signal decrease) (DAPI; run 2) was over 25 µM. It also gave an IC50 (TAG; mean of runs) of 5.67 µM, an IC50 (TAG; run 1) of 6.89 µM and an IC50 (TAG; run 2) of 4.44 µM.
With `CCOc1cc(CNc2ccc3c(c2)OCCO3)cc(Br)c1OCC` the IC50 cytotoxicity (DAPI nuclear signal decrease) (DAPI; mean of runs) was > 25 µM (inactive), the IC50 cytotoxicity (DAPI nuclear signal decrease) (DAPI; run 1) was over 25 µM and the IC50 cytotoxicity (DAPI nuclear signal decrease) (DAPI; run 2) was over 25 µM. The IC50 (TAG; mean of runs) was > 25 µM (inactive), the IC50 (TAG; run 1) was over 25 µM and the IC50 (TAG; run 2) was over 25 µM.
For `Cc1cc(NC(=O)c2ccccc2F)n(-c2nc3ccccc3[nH]2)n1`, the IC50 cytotoxicity (DAPI nuclear signal decrease) (DAPI; mean of runs) was > 25 µM (inactive), the IC50 cytotoxicity (DAPI nuclear signal decrease) (DAPI; run 1) was over 25 µM and the IC50 cytotoxicity (DAPI nuclear signal decrease) (DAPI; run 2) was over 25 µM. For the same molecule, the IC50 (TAG; mean of runs) was 16.8 µM (inactive), the IC50 (TAG; run 1) was 16.8 µM and the IC50 (TAG; run 2) was 16.9 µM.
In the case of `COc1ccc(-c2cc(NC=O)c3ncc(-c4ccc(OC)c(OC)c4)n3c2)cc1`, the IC50 cytotoxicity (DAPI nuclear signal decrease) (DAPI; run 1) is reported as over 25 µM, the IC50 cytotoxicity (DAPI nuclear signal decrease) (DAPI; run 2) is reported as 5.58 µM and the IC50 (TAG; mean of runs) is reported as 13.2 µM. For the same molecule, the IC50 (TAG; run 1) was 12.5 µM and the IC50 (TAG; run 2) was 13.9 µM.
With `Clc1cccc(Nc2nc(-c3ccncc3)cs2)c1` the IC50 cytotoxicity (DAPI nuclear signal decrease) (DAPI; mean of runs) was > 25 µM (inactive), the IC50 cytotoxicity (DAPI nuclear signal decrease) (DAPI; run 1) was over 25 µM and the IC50 cytotoxicity (DAPI nuclear signal decrease) (DAPI; run 2) was over 25 µM. The IC50 (TAG; mean of runs) was > 25 µM (inactive), the IC50 (TAG; run 1) was over 25 µM and the IC50 (TAG; run 2) was over 25 µM.
`N#CCC(=O)N/N=C/c1cn(Cc2ccc(Cl)c(Cl)c2)c2ccccc12` was tested, and the IC50 cytotoxicity (DAPI nuclear signal decrease) (DAPI; mean of runs) was > 25 µM (inactive), the IC50 cytotoxicity (DAPI nuclear signal decrease) (DAPI; run 1) was over 25 µM and the IC50 cytotoxicity (DAPI nuclear signal decrease) (DAPI; run 2) was over 25 µM. For the same molecule, the IC50 (TAG; run 1) was 19.9 µM and the IC50 (TAG; run 2) was over 25 µM.
For `COc1cc(C#Cc2c(-c3cncn3C)n(C)c3ccc(-c4ccc5[nH]ccc5c4)cc23)cc(OC)c1`, the IC50 cytotoxicity (DAPI nuclear signal decrease) (DAPI; run 1) was over 25 µM, the IC50 cytotoxicity (DAPI nuclear signal decrease) (DAPI; run 2) was over 25 µM and the IC50 (TAG; mean of runs) was 4.19 µM. For the same molecule, the IC50 (TAG; run 1) was 3.78 µM and the IC50 (TAG; run 2) was 4.6 µM.
For `Cc1ccc(-n2nc(C)c3c(C)c(CCC(=O)Nc4ccc(CN5CCCC5)cc4)c(C)nc32)cc1`, the IC50 cytotoxicity (DAPI nuclear signal decrease) (DAPI; mean of runs) was > 25 µM (inactive), the IC50 cytotoxicity (DAPI nuclear signal decrease) (DAPI; run 1) was over 25 µM and the IC50 cytotoxicity (DAPI nuclear signal decrease) (DAPI; run 2) was over 25 µM. It also gave an IC50 (TAG; run 1) of 20.6 µM and an IC50 (TAG; run 2) of over 25 µM.
`CCCCCc1cc(=O)oc2c(C(CCN(CC)CC)c3ccc(N(C)C)cc3)c(OC)cc(OC)c12` (stereo unspecified) was tested, and the IC50 cytotoxicity (DAPI nuclear signal decrease) (DAPI; mean of runs) was > 25 µM (inactive), the IC50 cytotoxicity (DAPI nuclear signal decrease) (DAPI; run 1) was over 25 µM and the IC50 cytotoxicity (DAPI nuclear signal decrease) (DAPI; run 2) was over 25 µM. The IC50 (TAG; run 1) was over 25 µM and the IC50 (TAG; run 2) was 17.5 µM.
In the case of `O=C(Nc1cc2c3c(c1)C1CCCC1CN3CC1CCCC21)c1ccc([N+](=O)[O-])cc1` (stereo unspecified), the IC50 cytotoxicity (DAPI nuclear signal decrease) (DAPI; mean of runs) is reported as > 25 µM (inactive), the IC50 cytotoxicity (DAPI nuclear signal decrease) (DAPI; run 1) is reported as over 25 µM and the IC50 cytotoxicity (DAPI nuclear signal decrease) (DAPI; run 2) is reported as over 25 µM. The IC50 (TAG; mean of runs) was 12.3 µM, the IC50 (TAG; run 1) was 11.3 µM and the IC50 (TAG; run 2) was 13.2 µM.
`Cc1cc(C)c(NC(=O)CSc2nc3ccc(NC(=O)CSc4nnnn4Cc4ccccc4)cc3s2)c(C)c1` was tested, and the IC50 cytotoxicity (DAPI nuclear signal decrease) (DAPI; mean of runs) was > 25 µM (inactive), the IC50 cytotoxicity (DAPI nuclear signal decrease) (DAPI; run 1) was over 25 µM and the IC50 cytotoxicity (DAPI nuclear signal decrease) (DAPI; run 2) was over 25 µM. The IC50 (TAG; mean of runs) was > 25 µM (inactive), the IC50 (TAG; run 1) was over 25 µM and the IC50 (TAG; run 2) was over 25 µM.
With `O=C1NC(Cc2ccc(O)cc2)c2nc3ccc(Cl)cc3c(=O)n2-c2cc3ccccc3cc21` (stereo unspecified) the IC50 cytotoxicity (DAPI nuclear signal decrease) (DAPI; mean of runs) was > 25 µM (inactive), the IC50 cytotoxicity (DAPI nuclear signal decrease) (DAPI; run 1) was over 25 µM and the IC50 cytotoxicity (DAPI nuclear signal decrease) (DAPI; run 2) was over 25 µM. The IC50 (TAG; mean of runs) was > 25 µM (inactive), the IC50 (TAG; run 1) was over 25 µM and the IC50 (TAG; run 2) was over 25 µM.
